pEC50, pIC50: −log10 of the molar value. Calls of active or inactive are those of the source. No cut-off for these calls is given here. Where only a bound is given, the exact number is not on record here.

A short description of series [1]: Cmax in BALB/c mouse at 10 mg/kg, po. The note with it: in vivo. The class given is ADME, organism-based.
A short description of series [2]: Clearance in BALB/c mouse at 10 mg/kg, po. The class given is ADME, organism-based. The note with it: in vivo, po, 10 mg/kg.
Series [3] in a line: Apparent volume of distribution in BALB/c mouse at 10 mg/kg, po. In kind it is ADME, organism-based. The note with it: in vivo.
Series [4] in a line: Tmax in BALB/c mouse at 10 mg/kg, po. The conditions noted are these: in vivo. The class given is ADME, organism-based.
Series [5] can be described thus: AUC (0 to t) in BALB/c mouse at 10 mg/kg, iv. In kind it is ADME, organism-based. The conditions noted are these: in vivo, iv, 10 mg/kg.
The nature of series [6]: Apparent volume of distribution in BALB/c mouse at 10 mg/kg, iv. The class given is ADME, organism-based. The note with it: in vivo, read-out: Vz.
Series [7] relates to U-937. Nature of the series: Anti-necroptosis activity against TSZ-induced human U-937 cells. In kind it is functional, cell-based.
Series [8] concerns HT-29. Briefly: Anti-necroptosis activity against TSZ-induced human HT-29 cells. In kind it is functional, cell-based.
Series [9] can be described thus: Tmax in BALB/c mouse at 10 mg/kg, iv. The conditions noted are these: in vivo. The class given is ADME, organism-based.
The nature of series [10]: Oral bioavailability in BALB/c mouse at 10 mg/kg. The class given is ADME, organism-based. The conditions noted are these: in vivo; for bioavailability: BALB/c.
Series [11] is described as follows: AUC (0 to t) in BALB/c mouse at 10 mg/kg, po. The class given is ADME, organism-based. The conditions noted are these: in vivo, po, 10 mg/kg.
Series [12] is described as follows: Half life in BALB/c mouse at 10 mg/kg, iv. The note with it: in vivo. The class given is ADME, organism-based.
Series [13] is described as follows: Half life in BALB/c mouse at 10 mg/kg, po. In kind it is ADME, organism-based. The conditions noted are these: in vivo.
Series [14] in a line: Cmax in BALB/c mouse at 10 mg/kg, iv. The note with it: in vivo. The class given is ADME, organism-based.
In series [15] the test system is L929. Nature of the series: Anti-necroptosis activity against TSZ-induced mouse L929 cells. The class given is functional, cell-based.
In series [16] the target is T1, Receptor-interacting serine/threonine-protein kinase 1 (Homo sapiens, UniProt Q13546).
T1 sequence (Q13546 whole entry): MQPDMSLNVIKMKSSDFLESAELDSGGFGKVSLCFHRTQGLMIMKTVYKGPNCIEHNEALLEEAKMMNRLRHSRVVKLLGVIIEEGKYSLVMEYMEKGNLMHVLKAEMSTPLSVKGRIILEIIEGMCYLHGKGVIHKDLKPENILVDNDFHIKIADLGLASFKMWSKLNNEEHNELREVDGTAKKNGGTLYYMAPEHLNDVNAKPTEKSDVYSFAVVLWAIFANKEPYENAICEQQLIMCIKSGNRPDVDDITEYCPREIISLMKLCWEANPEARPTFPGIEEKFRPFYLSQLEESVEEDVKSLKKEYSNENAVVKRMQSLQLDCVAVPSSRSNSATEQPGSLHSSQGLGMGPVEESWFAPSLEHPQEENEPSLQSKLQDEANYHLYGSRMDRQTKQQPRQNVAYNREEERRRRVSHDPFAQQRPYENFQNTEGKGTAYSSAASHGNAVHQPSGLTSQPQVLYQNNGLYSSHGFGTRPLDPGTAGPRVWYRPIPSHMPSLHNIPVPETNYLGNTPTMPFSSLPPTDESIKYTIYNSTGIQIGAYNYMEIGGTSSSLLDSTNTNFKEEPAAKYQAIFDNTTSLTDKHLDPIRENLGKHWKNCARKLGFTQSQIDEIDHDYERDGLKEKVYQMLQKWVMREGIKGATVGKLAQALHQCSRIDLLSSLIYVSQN
Briefly: Inhibition of RIPK1 (unknown origin) in presence of ATP by kinaseProfiler assay.

Series [17] can be described thus: Metabolic stability in cryopreserved human liver microsome assessed as half life. The class given is ADME. The note with it: cryopreserved liver microsomes. Background: Liver microsomes are a subcellular fraction often used to study metabolism.
Series [18] in a line: Clearance in BALB/c mouse at 10 mg/kg, iv. The class given is ADME, organism-based. The note with it: in vivo.
Series [19] has as its system Mus musculus. Briefly: In vivo anti-necrotptic activity in SIRS mouse model assessed as protection from body temperature loss at 10 mg/kg, po measured upto 6 hrs. The class given is functional, organism-based.
The nature of series [20]: Half life in BALB/c mouse at 5 mg/kg, iv. The class given is ADME, organism-based. The note with it: in vivo.
A short description of series [21]: Tmax in BALB/c mouse at 5 mg/kg, iv. The class given is ADME, organism-based. The note with it: in vivo.
Series [22] is described as follows: AUC (0 to t) in BALB/c mouse at 5 mg/kg, iv. In kind it is ADME, organism-based. The note with it: in vivo.
A short description of series [23]: Cmax in BALB/c mouse at 5 mg/kg, iv. In kind it is ADME, organism-based. The note with it: in vivo.

Turning to `Nc1n[nH]c(=O)c2c1c(-c1ccc3c(c1)CCN3C(=O)Cc1cccc(C(F)(F)F)c1)cn2CC1CC1`, the Cmax in series [1] and in series [14] was 45.5 ng/mL each time. The CL in [2] is 48.7 mL/min/kg. For the same compound, the Vz in series [3] turned out to be 2.8 L/kg. The Tmax was 8.4 min in [4] and 120 min in [9]. The AUCt in [5] and in series [11] was 2048.56 ng·h/mL each time. Also, the Vd in series [6] came to 91 L/kg. Besides, the values for the pEC50 in series [7], in series [8] and in [15] were 8.73, 8.22 and 8.93, respectively. The F in series [10] (po, 10 mg/kg) was 22.49%. Further, the half-life in [12] was 1260 min; in [17] it was 119 min. Further, the t1/2 in series [13] (po, 10 mg/kg) was determined as 1259 min. For the same compound, the pIC50 in series [16] is 6.90. In series [18], the clearance is 48.7 mL/min/kg.
On to `CCC1(Cn2nc(-c3ccc4c(c3)CCN4C(=O)Cc3cccc(OC(F)(F)F)c3)c3c(N)n[nH]c(=O)c32)COC1`, for which the pEC50 is 8.33 in [7], 7.74 in [8] and 8.18 in [15]. The pIC50 in [16] is 7.09. Besides, the half-life in series [17] turned out to be 16.5 min.
In the case of `CCn1nc(-c2ccc3c(c2)CCN3C(=O)Cc2cccc(OC(F)(F)F)c2)c2c(N)n[nH]c(=O)c21`, the pEC50 is 8.35 in series [7], 7.79 in series [8] and 8.01 in series [15]. The compound also came in with a bioavailability in series [10] of 4.36%. For the same compound, the pIC50 in series [16] is 7.37. For the same compound, in [17], the half-life was above 120 min.
`CC(C)n1nc(-c2ccc3c(c2)CCN3C(=O)Cc2cccc(OC(F)(F)F)c2)c2c(N)n[nH]c(=O)c21`: the values for the pEC50 in series [7], in series [8] and in series [15] were 7.76, 8.11 and 8.83, respectively. The pIC50 in series [16] was 7.18. The half-life in series [17] came to 26.8 min.
The corresponding values for `Nc1n[nH]c(=O)c2c1c(-c1ccc3c(c1)CCN3C(=O)Cc1cccc(OC(F)(F)F)c1)nn2CCC1CNC1` are below 6.00, below 6.00, 6.44, below 6.00 and 100 min.
Taken in the same sequence, the figures for `Nc1n[nH]c(=O)c2c1c(-c1ccc3c(c1)CCN3C(=O)Cc1cccc(OC(F)(F)F)c1)nn2CC(F)F` were 7.84, 7.80, 8.01, 7.07 and 31.9 min.
Taken in the same sequence, the figures for `CCn1cc(-c2ccc3c(c2)CCN3C(=O)Cc2cccc(OC(F)(F)F)c2)c2c(N)n[nH]c(=O)c21` were 8.76, 8.26, 8.22, 7.22 and 66.6 min.
For `Nc1n[nH]c(=O)c2c1c(-c1ccc3c(c1)CCN3C(=O)Cc1cccc(OC(F)(F)F)c1)nn2CC1COC1`, the pEC50 is 8.29 in series [7], 7.82 in [8] and 8.23 in series [15]. Moreover, the pIC50 in series [16] is 7.13. For the same compound, the half-life in [17] stood at 19.9 min.
Consider `Nc1n[nH]c(=O)c2c1c(-c1ccc3c(c1)CCN3C(=O)Cc1cccc(OC(F)(F)F)c1)cn2CC1CC1`, for which the pEC50 was 8.43 in series [7], 8.24 in [8] and 8.79 in [15]. The pIC50 in series [16] is 6.96. For the same compound, the half-life in [17] is above 120 min.
For `Nc1n[nH]c(=O)c2c1c(-c1ccc3c(c1)CCN3C(=O)Cc1cccc(OC(F)(F)F)c1)nn2CC1CCCC1`, the pEC50 in [7] was 7.90; in series [8], 7.80; in series [15], 8.40. Moreover, the pIC50 in series [16] was 7.02. The half-life in series [17] came to 49.9 min.
Consider `CC1(Cn2nc(-c3ccc4c(c3)CCN4C(=O)Cc3cccc(OC(F)(F)F)c3)c3c(N)n[nH]c(=O)c32)COC1`, for which the pEC50 in [7] is 8.41; in series [8] it was 8.25; in series [15] it was 8.73. The pIC50 in series [16] is 7.10. The half-life in series [17] worked out at 13.2 min.
Turning to `CN1C(=O)[C@@H](NC(=O)c2n[nH]c(Cc3ccccc3)n2)COc2ccccc21` [GSK2982772], the results for the pEC50 in series [7], in series [8] and in [15] were 8.90, 8.56 and 5.90, respectively. Moreover, the result in series [19] was Active.
For the compound `CC1(Cn2cc(-c3ccc4c(c3)CCN4C(=O)Cc3cccc(C(F)(F)F)c3)c3c(N)n[nH]c(=O)c32)COC1`, the pEC50 in series [7] is 7.66; in series [8], 7.48; in series [15], 8.80. For the same compound, the pIC50 in [16] is 7.31. For the same compound, the half-life in [17] is 85.6 min.
Taken in the same sequence, the figures for `CCCCn1nc(-c2ccc3c(c2)CCN3C(=O)Cc2cccc(OC(F)(F)F)c2)c2c(N)n[nH]c(=O)c21` were 7.81, 8.08, 8.92, 6.98 and 18.3 min.
Taken in the same sequence, the figures for `CCCn1nc(-c2ccc3c(c2)CCN3C(=O)Cc2cccc(OC(F)(F)F)c2)c2c(N)n[nH]c(=O)c21` were 9.34, 8.16, 8.85, 6.92 and 21.1 min.
For the compound `Nc1n[nH]c(=O)c2c1c(-c1ccc3c(c1)CCN3C(=O)Cc1cccc(OC(F)(F)F)c1)nn2CC1CC1`, the Cmax was 1090 ng/mL in [1] and 3290 ng/mL in series [23]. Besides, the half-life in series [20] is 702 min; in series [13] (BALB/c), 155 min; in series [17] it was 48.8 min. In [3], the Vz was found to be 6007.49 L/kg. Further, the values for the Tmax in series [4] and in [21] were 60 min and 8.4 min, respectively. Also, the pEC50 in series [7] was 8.41; in series [8], 8.58; in [15], 9.32. The compound further registered an AUC(0-t) in series [22] of 6930 ng·h/mL. This compound yielded a bioavailability in [10] of 44.1%. Besides, the AUCt in series [11] was 6121.97 ng·h/mL. Further, the pIC50 in series [16] was 6.96.
In the case of `COCCn1nc(-c2ccc3c(c2)CCN3C(=O)Cc2cccc(OC(F)(F)F)c2)c2c(N)n[nH]c(=O)c21`, the pEC50 in series [7] was 8.08; in series [8] it was 8.35; in series [15], 8.97. Further, the pIC50 in series [16] was 7.09. The half-life in series [17] was found to be 17.8 min.

For orientation: Cmax means the highest concentration seen after dosing. In general, Tmax refers to the time from dosing to the highest level. As a reminder, the pEC50 is the negative decadic logarithm of the EC50, by convention in mol/L. Read a low pEC50 as a large EC50. For orientation: half-life means the time in which the quantity being followed falls by half. One may read the pIC50 as the negative decadic logarithm of the IC50, by convention in mol/L. As usually defined, the clearance is the volume of plasma or blood freed of the substance per unit of time. The term bioavailability denotes dose-corrected exposure relative to a reference, in per cent. As usually defined, the AUC(0-t) is the area under the concentration-time curve up to a stated or last time point.

(Values after ChEMBL document CHEMBL5518188, “Discovery of 4-amino-1,6-dihydro-7H-pyrrolo[2,3-d]pyridazin-7-one derivatives as potential receptor-interacting serine/threonine-protein kinase 1 (RIPK1) inhibitors” (Eur J Med Chem, 2024).)
